Results reported in ChEMBL document CHEMBL1201862, “PubChem BioAssay data set” (2004).
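Briefly, cells in 96-well plates were exposed to five compound concentrations for 48 h, and endpoints were estimated by linear interpolation. Here, GI50 denotes the concentration required for 50% inhibition of growth.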 Activity calls are given as the source filed them. Rule as the data show it: active = GI50 up to about 1.1 µM and inactive = higher.

Legend:
Assay in all cases: NCI-60 cell line screen, 48 h
UACC-62 = tested on: UACC-62
SF-268 = tested on: SF-268
UACC-257 = tested on: UACC-257
786-0 = tested on: 786-0
SF-295 = tested on: SF-295
A549 = tested on: A549
SK-MEL-5 = tested on: SK-MEL-5
HCT-15 = tested on: HCT-15
U-251 = tested on: U-251
A498 = tested on: A498
OVCAR-4 = tested on: OVCAR-4
CCRF-CEM = tested on: CCRF-CEM
OVCAR-3 = tested on: OVCAR-3
SK-MEL-2 = tested on: SK-MEL-2
NCI-H226 = tested on: NCI-H226
HCC 2998 = tested on: HCC 2998

Row | SMILES | GI50 (UACC-62) | GI50 (SF-268) | GI50 (UACC-257) | GI50 (786-0) | GI50 (SF-295) | GI50 (A549) | GI50 (SK-MEL-5) | GI50 (HCT-15) | GI50 (U-251) | GI50 (A498) | GI50 (OVCAR-4) | GI50 (CCRF-CEM) | GI50 (OVCAR-3) | GI50 (SK-MEL-2) | GI50 (NCI-H226) | GI50 (HCC 2998)
1 | C[C@]12C/C(=C/O)C(=O)C(O)=C1CC[C@@H]1C2CC[C@@]2(C)C1CC[C@@H]2O (stereo not given in full) | 16.5 µM (inactive) | 24.5 µM (inactive) | 22.4 µM (inactive) | 33.3 µM (inactive) | 26.7 µM (inactive) | 57.8 µM (inactive) | 20.2 µM (inactive) | 21.5 µM | > 10 µM (inactive) | 23.6 µM (inactive) | 23.9 µM (inactive) | 18.4 µM (inactive) | 17.9 µM (inactive) | 19.9 µM (inactive) | 19.6 µM (inactive) | 
2 | N#Cc1ccc(/C=C(/C(=O)c2ccccc2)c2ccccc2)cc1 | 7.48 µM (inactive) | 15.2 µM (inactive) | 12.4 µM (inactive) | 10.9 µM (inactive) | 9.55 µM (inactive) | 16.9 µM (inactive) | 12.8 µM (inactive) | 12.2 µM | 12.4 µM (inactive) | 17.9 µM (inactive) | 10.2 µM (inactive) | 3.19 µM (inactive) | 16.1 µM (inactive) | 15 µM (inactive) | 16.7 µM (inactive) | 16.9 µM (inactive)
3 | COc1ccc2c(c1O)C(=O)C(CCC(=O)O)CC2 (stereo not given) | > 100 µM (inactive) |  | > 100 µM (inactive) | > 100 µM (inactive) | 30.9 µM (inactive) | > 100 µM (inactive) | > 100 µM (inactive) | > 100 µM | > 100 µM (inactive) | > 100 µM (inactive) | > 100 µM (inactive) | > 100 µM (inactive) | > 100 µM (inactive) |  |  | > 100 µM (inactive)
4 | COc1ccc(OC)c(CC(C)N)c1 (stereo not given) | > 100 µM (inactive) | > 100 µM (inactive) | > 100 µM (inactive) | > 100 µM (inactive) | > 100 µM (inactive) | > 100 µM (inactive) | > 100 µM (inactive) | > 100 µM | > 100 µM (inactive) | > 100 µM (inactive) | > 100 µM (inactive) | > 100 µM (inactive) | > 100 µM (inactive) | > 100 µM (inactive) | > 100 µM (inactive) | > 100 µM (inactive)
5 | CC(C)CCCC(C)[C@H]1CCC2[C@@H]3CCC4Nc5nocc5C[C@]4(C)C3CC[C@@]21C (stereo not given in full) | 22.5 µM (inactive) | 17.2 µM (inactive) | 19.7 µM (inactive) | 11.4 µM (inactive) | 19.3 µM (inactive) | 21.2 µM (inactive) | 14.6 µM (inactive) | 14.6 µM | 15.7 µM (inactive) | 21.6 µM (inactive) | 19.4 µM (inactive) | 7.23 µM (inactive) | 5.61 µM (inactive) | 20.7 µM (inactive) | 19.9 µM (inactive) | 15.5 µM (inactive)
6 | NC(=O)c1ncn2c1NCC1OC2C(O)C1O (stereo not given) | > 100 µM (inactive) | > 100 µM (inactive) | > 100 µM (inactive) | > 100 µM (inactive) | > 100 µM (inactive) | > 100 µM (inactive) | > 100 µM (inactive) |  | > 100 µM (inactive) | > 100 µM (inactive) | > 100 µM (inactive) | > 100 µM (inactive) | > 100 µM (inactive) | > 100 µM (inactive) | > 100 µM (inactive) | > 100 µM (inactive)
7 | CC(=O)O[C@H]1CC[C@@]2(C)C(=CC[C@H]3C4=CC=C(C(C)=O)[C@@]4(C)CCC32)C1 (stereo not given in full) | 18.8 µM (inactive) | 32.4 µM (inactive) | 24 µM (inactive) | 35.5 µM (inactive) | 41 µM (inactive) | 36.4 µM (inactive) | 17.7 µM (inactive) | 29.8 µM | 35.7 µM (inactive) | 32.4 µM (inactive) | 40.6 µM (inactive) | 21.4 µM (inactive) | 35.9 µM (inactive) |  | 15 µM (inactive) | 48.4 µM (inactive)
8 | OCC(O)COc1ccc(F)cc1 (stereo not given) | > 100 µM (inactive) | > 100 µM (inactive) | > 100 µM (inactive) | > 100 µM (inactive) | > 100 µM (inactive) | > 100 µM (inactive) | > 100 µM (inactive) | > 100 µM | > 100 µM (inactive) | > 100 µM (inactive) | > 100 µM (inactive) | > 100 µM (inactive) | > 100 µM (inactive) | > 100 µM (inactive) | > 100 µM (inactive) | > 100 µM (inactive)
9 | Nc1c(-c2nc3ccccc3[nH]2)sc(=S)n1-c1ccc(Cl)cc1 | 16.1 µM (inactive) | 25.3 µM (inactive) | 25.5 µM (inactive) | 19.9 µM (inactive) | 22.9 µM (inactive) | 23.5 µM (inactive) | 26 µM (inactive) | 25.4 µM | 23.7 µM (inactive) | 31 µM (inactive) | 20 µM (inactive) | 41.1 µM (inactive) | 18.5 µM (inactive) | 25.6 µM (inactive) | 26.5 µM (inactive) | 21.8 µM (inactive)
10 | COC(=O)C1=C(O)c2cc(OC)c(OC)c(OC)c2[C@H](c2cc(OC)c(OC)c(OC)c2)C1C(=O)OC (stereo not given in full) | 14 µM (inactive) | 42.1 µM (inactive) | 44.4 µM (inactive) | 34 µM (inactive) | 13.6 µM (inactive) | 49.8 µM (inactive) | 12.3 µM (inactive) | 28.8 µM | 36.5 µM (inactive) | 30.1 µM (inactive) | 32.6 µM (inactive) | 32.8 µM (inactive) | 22.9 µM (inactive) |  | 49.3 µM (inactive) | 27.6 µM (inactive)
11 | NNC(=S)N/N=C(\CCCC(=O)NCCc1ccccc1)CC(=O)c1ccccc1 | > 100 µM (inactive) | > 100 µM (inactive) | > 100 µM (inactive) | > 100 µM (inactive) | > 100 µM (inactive) | > 100 µM (inactive) | > 100 µM (inactive) | > 100 µM | > 100 µM (inactive) | > 100 µM (inactive) | > 100 µM (inactive) |  | > 100 µM (inactive) | > 100 µM (inactive) |  | > 100 µM (inactive)
12 | COc1ccc2oc(-c3ccncc3)cc(=O)c2c1 | 65.2 µM (inactive) | 67.6 µM (inactive) | > 100 µM (inactive) | > 100 µM (inactive) | > 100 µM (inactive) |  |  | > 100 µM | 73.3 µM (inactive) | > 100 µM (inactive) | > 100 µM (inactive) | 81.1 µM (inactive) | > 100 µM (inactive) | > 100 µM (inactive) | > 100 µM (inactive) | > 100 µM (inactive)
13 | O=C(O)CN1CCSc2ccccc2CN(CC(=O)O)CCSc2ccccc2C1 | > 100 µM (inactive) | > 100 µM (inactive) | > 100 µM (inactive) | > 100 µM (inactive) | > 100 µM (inactive) | > 100 µM (inactive) | > 100 µM (inactive) | > 100 µM | > 100 µM (inactive) | > 100 µM (inactive) |  | > 100 µM (inactive) | > 100 µM (inactive) | > 100 µM (inactive) |  | > 100 µM (inactive)
